Earlier results as cited in patent US6465497B2, “Arylthiazolidinedione derivatives” (Merck & Co., Inc., priority 1999, dated 2002).

How the values were obtained:
ob/ob mice = settings: Cantello et al, J. Med. Chem. 1994
PPARγ = target: T1, PPARγ (Homo sapiens, UniProt P37231); settings: subsequent studies; Willson et al, J. Med. Chem. 1996
T1 sequence (P37231 1-505): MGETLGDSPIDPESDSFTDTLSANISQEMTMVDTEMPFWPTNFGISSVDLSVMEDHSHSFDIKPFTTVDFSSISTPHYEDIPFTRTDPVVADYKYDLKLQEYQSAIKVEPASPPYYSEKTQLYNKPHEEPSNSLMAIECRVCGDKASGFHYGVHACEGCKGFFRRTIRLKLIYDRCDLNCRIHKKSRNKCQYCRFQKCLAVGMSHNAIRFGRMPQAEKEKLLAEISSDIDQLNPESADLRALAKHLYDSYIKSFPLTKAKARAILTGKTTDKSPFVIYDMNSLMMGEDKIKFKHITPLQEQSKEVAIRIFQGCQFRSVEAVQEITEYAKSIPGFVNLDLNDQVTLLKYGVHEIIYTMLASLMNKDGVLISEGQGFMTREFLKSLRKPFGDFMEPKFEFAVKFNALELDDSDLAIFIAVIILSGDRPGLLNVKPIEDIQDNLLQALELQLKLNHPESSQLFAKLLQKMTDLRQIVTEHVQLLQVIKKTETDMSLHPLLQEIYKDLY

diabetic mouse model = settings: Sohda et al, Chem. Pharm. Bull. 1982

Compound: CN(CCOc1ccc(C2SC(=O)NC2=O)cc1)c1nc2ccccc2o1 (stereo not drawn) [(1), 5-[4-[2-(2-benzoxazolylmethylamino)ethoxy]phenyl]-2,4-thiazolidinedione]
- antihyperglycemic activity (ob/ob mice): no antihyperglycemic activity
- amounts required for PPARγ activation (PPARγ): relatively high amounts

Compound: O=C1NC(=O)C(c2ccc(OCCc3ccccc3)cc2)S1 (stereo not drawn) [(2), 5-[4-(phenylethoxy)phenyl]-2,4-thiazolidinedione]
- antihyperglycemic effect (diabetic mouse model): no antihyperglycemic effect
